Target: Serotonin 5HT7 receptors (Homo sapiens (Human), UniProt P34969)
Experiment: Radiolabel Binding Studies for Serotonin 5HT7 receptors
Conditions: read-out: 5-HT7 % inhib @ 10 uM
Method: Radiolabel Binding Studies for Serotonin 5HT7 Receptors, Method 1:
Eleven dilutions (5× assay concentration) of the compound of the disclosure and chlorpromazine are prepared in the Assay Buffer by serial dilution to yield final corresponding assay concentrations ranging from 10 pM to 10 μM.
A stock concentration of 5 nM [^3H]LSD (lysergic acid diethyl amide) is prepared in 50 mM Tris-HCl, 10 mM MgCl2, 1 mM EDTA, pH 7.4 (Assay Buffer). Aliquots (50 μl) of radioligand are dispensed into the wells of a 96-well plate containing 100 μl of Assay Buffer. Duplicate 50-μl aliquots of the compound of the disclosure test and chlorpromazine positive control reference compound serial dilutions are added.
Membrane fractions of cells expressing recombinant 5HT7 receptors (50 μL) are dispensed into each well. […]
The 250-μl reactions are incubated at room temperature for 1.5 hours, then harvested by rapid filtration onto 0.3% polyethyleneimine-treated, 96-well filter mats using a 96-well Filtermate harvester. […] The filter mats are dried, then scintillant is added to the filters and the radioactivity retained on the filters is counted in a Microbeta scintillation counter. […]

Sequence of Serotonin 5HT7 receptors (P34969 whole entry): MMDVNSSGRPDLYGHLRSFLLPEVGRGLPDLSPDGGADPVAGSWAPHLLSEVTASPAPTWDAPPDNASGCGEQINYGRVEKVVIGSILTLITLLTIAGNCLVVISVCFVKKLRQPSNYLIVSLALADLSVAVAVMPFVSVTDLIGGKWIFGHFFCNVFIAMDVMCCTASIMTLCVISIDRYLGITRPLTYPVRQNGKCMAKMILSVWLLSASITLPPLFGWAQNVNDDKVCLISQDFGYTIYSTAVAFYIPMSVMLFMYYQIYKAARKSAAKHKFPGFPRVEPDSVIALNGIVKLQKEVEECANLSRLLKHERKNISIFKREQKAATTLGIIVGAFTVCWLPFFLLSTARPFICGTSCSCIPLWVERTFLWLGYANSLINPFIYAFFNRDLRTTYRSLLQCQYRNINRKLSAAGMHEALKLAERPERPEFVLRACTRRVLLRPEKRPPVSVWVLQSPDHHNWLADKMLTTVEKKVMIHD

inhibition at 10 µM: 85.7%
Structure (SMILES): CC1(C)CC(CCN2CCN(c3ccccc3C#N)CC2)OC1=O (stereo not shown) [Entry 19]

— patent US10287274B2, “5-hydroxytryptamine receptor 7 activity modulators and their method of use” (TEMPLE UNIVERSITY OF THE COMMONWEALTH SYSTEM OF HIGHER …, priority 2013, dated 2019)
